In patent US4431639A, “Adjuvant for stimulating production of lymphocytes” (priority 1979, dated 1984):
“Also recorded” adds a separate entry of the source.

System: Sarcoma 180
Assay: Survival / recovery of mice after intraperitoneal inoculation of Sarcoma 180
Assay type: in vivo, mice (I.C.R.)
Conditions: for effectiveness against Sarcoma 180 compared with the extract of the natural herb: comparison in words; for effectiveness for treating mice inoculated with Sarcoma 180: in words
Procedure: White male mice (I.C.R.) weighing 16 to 18 g.
1 gm of the dried powder was dissolved in 160 ml of tap water and was put into the animal cages in place of the usual drinking water, so that the test mice ingested it ad libitum. […]
A large volume of ether extract from a powder of Rhizoma Atractylis alba was produced. Some definite weights of the ether extract were dissolved in small volumes of ethanol, and then diluted with water to obtain emulsions of ether extract/water of 1 mg/100 ml, 2 mg/100 ml, 3 mg/100 ml, 4 mg/100 ml and 5 mg/100 ml.
The emulsions were administered to I.C.R. male mice for one month as described in Example 4, and then the mice were inoculated with 200,000 cells of Sarcoma 180 intraperitoneally. The survival time of the inoculated mice was regressed to the concentration of ether extract administered. […]
Mandelic acid, mandelic acid isoamyl ester (Atractyl), mandelic acid methyl ester, mandelic acid ethyl ester and atrolactic acid were tested by the same procedure as described in Example 6.

SMILES | effectiveness against Sarcoma 180 compared with the extract of the natural herb | effectiveness for treating mice inoculated with Sarcoma 180
CC(C)CCOC(=O)C(O)c1ccccc1 (stereo not shown) [Atractyl, mandelic acid isoamyl ester] | less effective than the extract from the natural herb; also recorded: significantly less than that of the extract of the natural herb | somewhat effective
O=C(O)C(O)c1ccccc1 (stereo not shown) [Mandelic acid] | less effective than the extract from the natural herb | somewhat effective
CC(O)(C(=O)O)c1ccccc1 (stereo not shown) [atrolactic acid] | less effective than the extract from the natural herb | somewhat effective
CCOC(=O)C(O)c1ccccc1 (stereo not shown) [mandelic acid ethyl ester] | less effective than the extract from the natural herb | somewhat effective
COC(=O)C(O)c1ccccc1 (stereo not shown) [mandelic acid methyl ester] | less effective than the extract from the natural herb | somewhat effective
